Columns and labels:
[1] = Determination of pharmacokinetic parameters after oral gavage of prodrug; type: in vivo, dogs; conditions: plasma; prodrug dosed orally by gavage, dose equivalent to 0.127 mmol; hplc
Experimental: Groups of three dogs were used for each dose level of an experimental compound and one (1) non-cannulated dog was used as a vehicle control. Animals were allowed normal access to chow and water throughout the experiment. The prodrug N-[4-amino-5-(5-iodo-2-isopropyl-4-methoxy-phenoxy)-pyrimidin-2-yl]-2-dipropylamino-acetamide was formulated as an aqueous solution or an aqueous suspension and a dose equivalent to (0.127 mmol) was administered orally by gavage. A blood sample (0.3 mL) was collected from the […] at 0.5, 1, 2, 3, 4, 6 and 8 hours after via the jugular cannula. A sample of at least 0.3 mL of blood was withdrawn from the untreated animals 3 hours after dosing. After 24 hours from dosing, a blood sample was collected from all treated and control animals. Potassium oxalate/NaF was added to the samples which were stored on ice during sampling procedure. The samples were spun in a refrigerated centrifuge at −4° C. as soon as possible and the plasma samples were stored −20° C. immediately after centrifugation and later transferred to a −80° C. freezer until analysis. The concentration of the prodrug N-[4-amino-5-(5-iodo-2-isopropyl-4-methoxy-phenoxy)-pyrimidin-2-yl]-2-dipropylamino-acetamide and the parent compound 5-(5-Iodo-2-isopropyl-4-methoxy-phenoxy)-pyrimidine-2,4-diamine was determined by hplc.

[2] = target: T1, human P2X2/3 receptor (Homo sapiens, UniProt P56373+Q9UBL9); assay: P2X2/3 FLIPR (Fluorometric Imaging Plate Reader) assay; type: cell-based; conditions: CHO-K1 cells transfected with human P2X2/3; agonist α,β-meATP 5 μM; FLIPR calcium fluorescence
T1 construct: expressed in transfected cells; host or cells: CHO-K1
T1 sequence (Q9UBL9 1-471): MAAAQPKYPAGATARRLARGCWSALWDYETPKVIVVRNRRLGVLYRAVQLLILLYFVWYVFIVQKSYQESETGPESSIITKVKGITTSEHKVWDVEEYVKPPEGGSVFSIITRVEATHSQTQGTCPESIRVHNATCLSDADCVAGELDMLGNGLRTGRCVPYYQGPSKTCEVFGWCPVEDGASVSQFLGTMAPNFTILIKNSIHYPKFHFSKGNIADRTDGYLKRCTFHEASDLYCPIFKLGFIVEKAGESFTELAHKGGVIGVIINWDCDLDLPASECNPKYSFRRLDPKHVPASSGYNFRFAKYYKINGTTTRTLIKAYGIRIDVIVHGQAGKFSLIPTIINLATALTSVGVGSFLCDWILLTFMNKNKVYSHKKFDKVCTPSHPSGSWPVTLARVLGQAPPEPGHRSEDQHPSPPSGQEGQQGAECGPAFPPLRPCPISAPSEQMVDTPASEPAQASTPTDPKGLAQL
T1 sequence (P56373 1-397): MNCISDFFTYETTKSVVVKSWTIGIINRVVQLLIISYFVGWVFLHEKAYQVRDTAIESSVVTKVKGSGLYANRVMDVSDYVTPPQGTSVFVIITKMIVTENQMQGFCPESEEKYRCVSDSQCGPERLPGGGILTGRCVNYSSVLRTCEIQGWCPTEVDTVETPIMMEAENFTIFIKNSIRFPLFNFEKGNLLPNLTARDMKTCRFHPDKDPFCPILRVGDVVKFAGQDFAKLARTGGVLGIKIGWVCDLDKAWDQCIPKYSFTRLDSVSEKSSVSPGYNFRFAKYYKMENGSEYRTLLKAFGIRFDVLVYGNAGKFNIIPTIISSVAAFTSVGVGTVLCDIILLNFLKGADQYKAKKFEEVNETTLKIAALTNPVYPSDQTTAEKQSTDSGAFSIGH
Experimental: (§1) CHO-K1 cells were transfected with cloned rat P2X3 or human P2X2/3 receptor subunits and passaged in flasks. 18-24 hours before the FLIPR experiment, cells were released from their flasks, centrifuged, and resuspended in nutrient medium at 2.5×10^5 cells/ml. The cells were aliquoted into black-walled 96-well plates at a density of 50,000 cells/well and incubated overnight in 5% CO2 at 37° C. On the day of the experiment, cells were washed in FLIPR buffer (calcium- and magnesium-free Hank's balanced salt solution, 10 mM HEPES, 2 mM CaCl2, 2.5 mM probenecid; FB). Each well received 100 μl FB and 100 μl of the fluorescent dye Fluo-3 AM [2 μM final conc.]. […]
(§2) Test compounds (dissolved in DMSO at 10 mM and serially diluted with FB) or vehicle were added to each well (25 μl of a 4× solution) and allowed to equilibrate for 20 minutes at room temperature. The plates were then placed in the FLIPR and a baseline fluorescence measurement (excitation at 488 nm and emission at 510-570 nm) was obtained for 10 seconds before a 100 μl/well agonist or vehicle addition. […] Fluorescence was measured for an additional 2 minutes at 1 second intervals after agonist addition. A final addition of ionomycin (5 μM, final concentration) was made to each well of the FLIPR test plate to establish cell viability and maximum fluorescence of dye-bound cytosolic calcium. […]

[3] = target: T2, rat P2X3 receptor (Rattus norvegicus, UniProt P49654); assay: P2X3 FLIPR (Fluorometric Imaging Plate Reader) assay; type: cell-based; conditions: CHO-K1 cells transfected with rat P2X3; agonist α,β-meATP 1 μM; FLIPR calcium fluorescence
T2 construct: expressed in transfected cells; host or cells: CHO-K1
T2 sequence (P49654 1-397): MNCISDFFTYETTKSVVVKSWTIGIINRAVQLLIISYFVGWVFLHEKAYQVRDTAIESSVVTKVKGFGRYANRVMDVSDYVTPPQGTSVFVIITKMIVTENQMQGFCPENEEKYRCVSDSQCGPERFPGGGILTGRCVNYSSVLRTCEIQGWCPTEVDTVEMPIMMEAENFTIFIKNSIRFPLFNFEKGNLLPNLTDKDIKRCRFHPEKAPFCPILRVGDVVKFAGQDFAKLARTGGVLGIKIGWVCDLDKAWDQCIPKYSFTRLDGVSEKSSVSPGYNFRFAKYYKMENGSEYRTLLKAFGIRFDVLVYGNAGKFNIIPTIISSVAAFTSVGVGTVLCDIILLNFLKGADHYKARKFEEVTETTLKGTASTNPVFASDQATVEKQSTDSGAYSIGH
Experimental: as §1, §2

SMILES	melting point [°C]	AUC of the prodrug [1] [ng·h/mL]	Cmax of the prodrug [1] [ng/mL]	pIC50 for the P2X2/3 receptor [2]	pIC50 for the P2X3 receptor [3]
CCCN(CCC)CC(=O)Nc1ncc(Oc2cc(I)c(OC)cc2C(C)C)c(N)n1 [Compound 2, N-[4-Amino-5-(5-iodo-2-isopropyl-4-methoxy-phenoxy)-pyrimidin-2-yl]-2-dipropylamino-acetamide]	129 to 131	21.1	15.2		
COc1cc(C(C)C)c(Oc2cnc(NC(=O)C(C)C)nc2N)cc1I [N-[4-Amino-5-(5-iodo-2-isopropyl-4-methoxy-phenoxy) -pyrimidin-2-yl]-isobutyramide]				~7.4	approximately 7.8
COc1cc(C(C)C)c(Oc2cnc(NC(=O)CNC3CCCC3)nc2N)cc1I [Compound 3, N-[4-Amino-5-(5-iodo-2-isopropyl-4-methoxy-phenoxy)-pyrimidin-2-yl]-2-cyclopentylamino-acetamide]	176.5 to 178				

From patent US7589090B2, “Diaminopyrimidines as P2X3 and P2X2/3 modulators” (Roche Palo Alto LLC, priority 2007, dated 2009)
